According to patent publication US9018244B2, “Benzopyran compounds, compositions and uses thereof” (Olema Pharmaceuticals, Inc., priority 2011, dated 2015):

System: MCF-7 HER2/neu Clone 18 xenograft
Assay: Mammary tumor xenograft study
Assay type: in vivo, ovariectomized athymic nude mice
Details: 100 mg/kg twice daily by oral gavage, mice implanted with estrogen pellets
From the text: FIG. 13. […] A) Percent change in tumor volume of human MCF-7 HER2/neu clone 18 xenografts in ovariectomized athymic nude mice implanted with estrogen pellets and treated with either tamoxifen (by oral gavage), fulvestrant (Faslodex) by s.c. injection, or OP-1074 (by oral gavage). B) Weights of the animals treated as above. C) Waterfall plot of final tumor volumes compared with volumes at the start of treatment.
The purpose of this study is to examine the ability of OP-1074, to slow or shrink a tamoxifen resistant tumor (MCF-7 HER2/neu Clone 18) xenograft growing on ovariectomized athymic nude mice under stimulation from exogenous estrogen. Clone 18 cells grown in culture are implanted along with 0.18 mg estradiol/90 day release pellets (Innovative Research, Sarasota Fla.) into 55 mice to initiate the experiment. When the tumors have reached 250 cubic millimeters the mice are divided into four groups of 10 mice each and dosing initiated. The four groups are:
1) No hormonal treatment—this group receives daily gavage with vehicle.
2) Tamoxifen citrate 100 mg/kg daily by oral gavage in vehicle.
3) Faslodex 100 mg/kg delivered daily by subcutaneous injection.
4) OP-1074 100 mg/kg twice daily by oral gavage in vehicle with the exception of two weekends in which dosing was once daily.

## CC1=C(c2ccc(O)cc2)[C@H](c2ccc(OCCN3CC[C@@H](C)C3)cc2)Oc2cc(O)ccc21 [OP-1074, (2S)-3-(4-hydroxyphenyl)-4-methyl-2-(4-{2-[(3R)-3-methylpyrrolidin-1-yl]ethoxy}phenyl)-2H-chromen-7-ol]
  Tumor volume change of xenografts: rapid and complete regression
